# Measured values published in patent US9359298B2, “Cajanine structure analogous compound, preparation method and use” (INSTITUTE OF MEDICINAL BIOTECHNOLOGY, CHINESE ACADEMY OF …, priority 2011, dated 2016).
# Where two headings read alike, the source gives them in different places.
# How the values were obtained:
# Format in all cases: cell-based
# [1] = test system: Influenza A virus (hanfang359/95); assay: Determination of anti-influenza virus activity (CPE in MDCK cells); conditions: for IC50: Influenza A virus, MDCK, 36 h; for anti-influenza virus activities compared with the lead compound cajanine: statement in words
# PC12 cells [2] = assay: Neuroprotective activity assay, rotenone injury to PC12 cells (MTT); conditions: for viability at 10 µM: Rattus norvegicus, PC-12, 48 h, read-out: rotenone (surviving PC12 cells, MTT 570 nm)
# Protocol: (§1) Discard the original culture media from confluent monolayers of PC12 cells (simulated neuronal cells), add DMEM complete medium with 5% FBS, 5% horse serum gently beat upon the cells with a pipette to completely disperse them, inoculate 100 μl cell suspension at a density of […] per well to 96 hole plates treated with poly-lysine (0.1 mg/ml) in advance, culture for 24h. Divide the experimenting cells into control group, model group and dosing groups. Add complete medium to the control group. Model groups includes rotenone group and serum-deprived group, add rotenone to the corresponding modules with a final concentration of 4 μM rotenone to take effect on the cells for 48 h, add serum-deprived groups with serum-free DMEM medium to take effect on the cells for 48 h. Dosing groups also includes two groups, one using rotenone module as model, another using serum-deprived module as model, and both add in 10 μM test compounds during modeling. 48h later, add 10 μl 5 mg/ml MTT, subsequently discard the supernatant 4h later and add in 150 μl DMSO, measure 570 nm absorbance to represent the numbers of surviving cells.
# Coxsackie virus B6 = assay: Coxsackie virus activity assay (CPE in Vero cells); conditions: for IC50: Vero, read-out: COX-B6 IC50, Vero cells, about 100TCID50, CPE, Reed-Muench
# HIV-1 III B virus = assay: Anti-HIV activity assay (P24 antigen in MT-4 cells); conditions: for IC50: Human immunodeficiency virus 1, MT4, 96 h, read-out: HIV IC50; for anti-HIV viral activity: statement in words
# HCV = assay: Anti-hepatitis C virus (HCV) activity assay (HCV RNA in Huh7.5 cells); conditions: for EC50: Hepatitis C virus, Huh7.5, 72 h, read-out: HCV EC50; for anti-HCV viral activity: statement in words
# Protocol: Inoculate Huh7.5 cells into 96-well plates to a density of 3×10^4 cells/cm^2, culture for 24h, infect the cells with 45 IU/cell HCV supernatant, meanwhile, add drug solutions or solvent control for treatment.
# PC12 cells [3] = assay: Neuroprotective activity assay, serum-deprived injury to PC12 cells (MTT); conditions: for viability at 10 µM: Rattus norvegicus, PC-12, 48 h, read-out: serum-deprived (surviving PC12 cells, MTT 570 nm)
# Protocol: as §1
# [4] = 10 μM test compound, 4 μM rotenone, 48 h, Control 100.0 ± 8.9, Model 73.2 ± 7.8
# [5] = MT-4 cells, HIV-1 III B 100TCID50, 96 h, P24 antigen
# [6] = Huh7.5 cells, 72 h, HCV RNA by RT-PCR, Reed-Muench
# [7] = 10 μM test compound, 48 h, Control 100.0 ± 9.2, Model 69.3 ± 4.1
Compound,IC50 [1] [µg/mL],viability at 10 µM (PC12 cells [2]; [4]) [%],IC50 (Coxsackie virus B6) [µg/mL],IC50 (HIV-1 III B virus; [5]) [µg/mL],anti-HIV viral activity (HIV-1 III B virus),EC50 (HCV; [6]) [µg/mL],anti-HCV viral activity (HCV),viability at 10 µM (PC12 cells [3]; [7]) [%],anti-influenza virus activities compared with the lead compound cajanine [1],EC50 (HCV) [µg/mL],Influenza A virus (hanfang359/95) IC50 [1] [µg/mL],"rotenone (surviving PC12 cells, MTT 570 nm) (PC12 cells [2]; [4])",COX-B6 IC50 (Coxsackie virus B6) [µg/mL],HIV IC50 (HIV-1 III B virus; [5]) [µg/mL],HCV EC50 (HCV; [6]) [µg/mL],"serum-deprived (surviving PC12 cells, MTT 570 nm) (PC12 cells [3]; [7])",protective effect on rotenone injury to PC12 cells (PC12 cells [2]; statement in words),protective effect on serum-deprived injury to PC12 cells (PC12 cells [3]; statement in words)
"COc1cc(/C=C(\C)c2ccccc2)c(C(=O)O)c(O)c1CC=C(C)C [Compound 1i, 2-hydroxy-3-isopentenyl-4-methoxy-6-[(E)-2-phenylpropen-1-yl]benzoic acid]",> 0.82,55.1 ± 4.8,6.25,1.31,"stronger anti-HIV, HCV viral activities",0.59,"stronger anti-HIV, HCV viral activities",28.3 ± 7.6,,,,,,,,,,
"COc1cc(/C=C/c2cccs2)c(C(=O)O)c(O)c1CC=C(C)C [Compound 1j, 2-hydroxy-3-isopentenyl-4-methoxy-6-[(E)-2-(thien-2-yl)ethenyl]benzoic acid]",> 0.27,59.8 ± 7.7,2.13,1.02,"stronger anti-HIV, HCV viral activities",0.77,"stronger anti-HIV, HCV viral activities",27.7 ± 6.3,,,,,,,,,,
"COc1cc(/C=C/Cc2ccccc2)c(C(=O)O)c(O)c1CC=C(C)C [Compound 1k, 2-hydroxy-3-isopentenyl-4-methoxy-6-[(E)-3′-phenyl-propen-1′-yl]benzoic acid]",2.05,60.4 ± 3.2,> 2.06,2.4,,1.03,,19.2 ± 0.5,significantly stronger than the lead compound cajanine,,,,,,,,,
"COc1cc(/C=C/CCc2ccccc2)c(C(=O)O)c(O)c1CC=C(C)C [Compound 1l, 2-hydroxy-3-isopentenyl-4-methoxy-6-[(E)-4′-phenylbuten-1′-yl]benzoic acid]",0.36,58.4 ± 1.4,> 2.06,1.64,"stronger anti-HIV, HCV viral activities",0.65,"stronger anti-HIV, HCV viral activities",27.2 ± 7.2,significantly stronger than the lead compound cajanine,,,,,,,,,
"COc1cc(/C=C/C=C/c2ccccc2)c(C(=O)O)c(O)c1CC=C(C)C [Compound 1m, 2-hydroxy-3-isopentenyl-4-methoxy-6-[(1′E,3′E)-phenylbutadien-1′,3′-yl]benzoic acid]",6.17,74.4 ± 4.4,> 2.06,1.07,,,,21 ± 2.2,,6.17,,,,,,,,
"COc1cc(C=C2CCC(C)CC2)c(C(=O)O)c(O)c1CC=C(C)C (centres unmarked) [Compound 1n, 2-hydroxy-3-isopentenyl-4-methoxy-6-(4′-methyl-cyclohexylenemethyl)benzoic acid]",,,,,,,,,,,>6.17,62.9 ± 2.7,>0.69,0.99,2.61,17.3 ± 2.4,,
COc1cc(/C=C/c2ccccc2)c(C(=O)O)c(O)c1C/C=C(\C)CCC=C(C)C [Compound 1o],> 2.47,61 ± 2.8,1.36,1.76,,1.47,,28.1 ± 11.9,,,,,,,,,,
"COc1cc(/C=C/C2CCCCC2)c(C(=O)O)c(O)c1CC=C(C)C [Compound 1p, 2-hydroxy-3-isopentenyl-4-methoxy-6-[(E)-2-cyclohexyl-vinyl]benzoic acid]",8.62,82 ± 2.3,> 2.06,1.06,,,,81.2 ± 3.2,,8.62,,,,,,,the strongest activities,the strongest activities
COc1cc(/C=C/c2ccc(O)cc2)c(C(=O)O)c(O)c1CC=C(C)C [Compound 1q],2.35,78.9 ± 5.3,0.86,1.86,,2.3,,79.6 ± 2.8,significantly stronger than the lead compound cajanine,,,,,,,,,
